Assays:
[1] = Solubility and room temperature stability of M4N in modified cyclodextrin / PEG formulations (visual inspection); type: physicochemical
Method: A 100 mL solution of 40% HP-β-CD for use as a solubilizing agent and/or excipient was made as follows: 65 mL of WFI were placed in a glass beaker containing a stir bar. The beaker was placed on a magnetic plate, and the stir bar was set to stir at medium speed. About forty (40) grams of HP-β-CD were added slowly to the stirring WFI, using a spatula to direct the HP-β-CD to the center of the beaker so as to prevent HP-β-CD crystals from sticking to the beaker wall. The HP-β-CD solution was stirred for about 24 hr or until the HP-β-CD was dissolved completely upon visual inspection. The resulting solution measured about 93 mL. About 7 mL of WFI was added to this resulting solution to obtain 100 mL, producing a final solution of about 40% HP-β-CD. The final solution was stirred for about 1 hr, stored at room temperature, and was protected from light. This method of making the modified cyclodextrin solution may be scaled up or down to obtain the desired volume or concentration. Other concentrations or other modified cyclodextrin solutions may be similarly made, for example, by substituting HP-β-CD with other modified cyclodextrins, adjusted for the appropriate concentrations in the process described above.
A 10 mL solution of M4N at a concentration of about 10 mg/mL in 40% HP-β-CD was made as follows. About 10 mL of the 40% HP-β-CD solution were added to a glass beaker containing a stir bar. The beaker was placed on a magnetic plate and the stir bar was set to stir at medium speed. About […] of M4N were slowly added to the 40% HP-β-CD in the center of the beaker with the aid of a spatula. The M4N/40% HP-β-CD mixture was stirred for 2 hr or until all M4N was uniformly suspended without any clumps being present. The M4N/40% HP-β-CD mixture was optionally heated at 80° C. for about 30 min. (or longer if a larger volume of solution was desired, for example, 1 hr at 80° C. for 100 mL of the M4N/HP-β-CD mixture), or longer as needed to ensure complete dissolution of M4N. […] The final M4N/40% HP-β-CD solution was stored at room temperature and was kept protected from light. This process may be scaled up or down to obtain the requisite volume or concentration of M4N. Formulations containing M4N in other cyclodextrin solutions may be similarly made, such as, for example, by substituting HP-β-CD in the process described above with other cyclodextrins.
A 100 mL solution of M4N at a concentration of about 25 mg/mL in PEG 300 was made as follows. About 100 mL of PEG 300 were added to a glass beaker containing a stir bar. The beaker was placed on a magnetic plate and the stir bar was set to stir at medium speed. About 2.5 g of M4N were slowly added to the PEG 300 in the center of the beaker with the aid of a spatula to prevent M4N from sticking to the beaker wall. The M4N/PEG 300 mixture was stirred for 24 hr or until all M4N had dissolved or was uniformly suspended without any clumps being present. The M4N/PEG 300 mixture was optionally heated at about 60° C. for about 30 min. (or longer if a larger volume of solution was desired, for example, 1 hr at 60° C. for 500 mL of the M4N/PEG 300 mixture), or longer as needed to ensure complete dissolution of M4N. […] If crystals formed, the M4N/PEG 300 solution could be heated again at 60° C. for about 1 hr, with stirring, on a hot magnetic plate until all M4N was dissolved back in solution. The final M4N/PEG 300 solution was stored at room temperature and was kept protected from light. This process may be scaled up or down to obtain the requisite volume or concentration of M4N. Formulations containing M4N in other PEGs may be similarly made, such as, for example, by substituting PEG 300 in the process described above with PEG 400 or PEG 400 monolaurate. […]

[2] = Stability of M4N formulations at 4° C. and on centrifugation; type: physicochemical
Method: All formulations withstand 4° C. for 24 hr and 5 min. centrifugation at 5000 rpm without forming visible precipitates. The formulation containing 50% PEG 300, 20% HP-β-CD, 12.5 mg/mL M4N stock solution withstands 4° C. for at least 4 months. Dilutions of the same stock made in 1:1 or 1:2 dilutions also withstand 4° C. for at least 4 months.

COc1ccc(C[C@@H](C)[C@@H](C)Cc2ccc(OC)c(OC)c2)cc1OC [Formulation M4N, meso-1,4-bis(3,4-dimethoxyphenyl)-2,3-dimethylbutane]
Dissolution After Heating at X ° C. ([1]; 1.50% β-CD, M4N 1 mg/mL, 90°): N at 90°
Dissolution After Heating at X ° C. ([1]; 1.50% β-CD, M4N 10 mg/mL, 90°): N at 90°
Stability at Room Temperature ([1]; 5% HP-β-CD, 12.5% PEG 300 (v/v), M4N 3.13 mg/mL): <7 days
Dissolution After Heating at X ° C. ([1]; 5% HP-β-CD, 12.5% PEG 300 (v/v), M4N 3.13 mg/mL, 60°): Y at 60°
Dissolution After Heating at X ° C. ([1]; 5% γ-CD, M4N 1 mg/mL, 90°): N at 90°
Stability at Room Temperature ([1]; 6.7% HP-β-CD, 16.7% PEG 300 (v/v), M4N 4.17 mg/mL): >7 days
Dissolution After Heating at X ° C. ([1]; 6.7% HP-β-CD, 16.7% PEG 300 (v/v), M4N 4.17 mg/mL, 60°): Y at 60°
Stability at Room Temperature ([1]; 10% HP-β-CD, 25% PEG 300 (v/v), M4N 6.25 mg/mL): >7 days
Dissolution After Heating at X ° C. ([1]; 10% HP-β-CD, 25% PEG 300 (v/v), M4N 6.25 mg/mL, 60°): Y at 60°
Dissolution After Heating at X ° C. ([1]; 10% HP-β-CD, 77% PEG 300 (v/v), M4N 19.3 mg/mL, 60°): Y at 60°
Stability at Room Temperature ([1]; 12.5% HP-β-CD, 50% PEG 300 (v/v), M4N 12.5 mg/mL): <1 days
Dissolution After Heating at X ° C. ([1]; 12.5% HP-β-CD, 50% PEG 300 (v/v), M4N 12.5 mg/mL, 60°): Y at 60°
Dissolution After Heating at X ° C. ([1]; 13% HP-β-CD, 67% PEG 300 (v/v), M4N 16.7 mg/mL, 60°): Y at 60°
Stability at Room Temperature ([1]; 15% HP-β-CD, 50% PEG 300 (v/v), M4N 12.5 mg/mL): <7 days
Dissolution After Heating at X ° C. ([1]; 15% HP-β-CD, 50% PEG 300 (v/v), M4N 12.5 mg/mL, 60°): Y at 60°
Dissolution After Heating at X ° C. ([1]; 15% α-CD, M4N 10 mg/mL, 90°): N at 90°
Dissolution After Heating at X ° C. ([1]; 15% α-CD, M4N 50 mg/mL, 90°): N at 90°
Dissolution After Heating at X ° C. ([1]; 15% α-CD, M4N 100 mg/mL, 90°): N at 90°
Stability at Room Temperature ([1]; 20% HP-β-CD, 50% PEG 300 (v/v), M4N 12.5 mg/mL): >7 days
Dissolution After Heating at X ° C. ([1]; 20% HP-β-CD, 50% PEG 300 (v/v), M4N 12.5 mg/mL, 60°): Y at 60°
Stability at Room Temperature ([1]; 20% HP-β-CD, M4N 1 mg/mL): >7 days
Dissolution After Heating at X ° C. ([1]; 20% HP-β-CD, M4N 1 mg/mL, 90°): Y at 90°
Dissolution After Heating at X ° C. ([1]; 20% HP-β-CD, M4N 10 mg/mL, 90°): N at 90°
Stability at Room Temperature ([1]; 23% HP-β-CD, 43 PEG 300 (v/v), M4N 12.9 mg/mL): >7 days
Dissolution After Heating at X ° C. ([1]; 23% HP-β-CD, 43 PEG 300 (v/v), M4N 12.9 mg/mL, 60°): Y at 60°
Stability at Room Temperature ([1]; 27% HP-β-CD, 33% PEG 300 (v/v), M4N 13.3 mg/mL): >7 days
Dissolution After Heating at X ° C. ([1]; 27% HP-β-CD, 33% PEG 300 (v/v), M4N 13.3 mg/mL, 60°): Y at 60°
Stability at Room Temperature ([1]; 27% HP-β-CD, 33% PEG 400 (v/v), M4N 13.3 mg/mL): >7 days
Stability at Room Temperature ([1]; 30% HP-β-CD, 25% PEG 400 (v/v), M4N 12.5 mg/mL): >7 days
Dissolution After Heating at X ° C. ([1]; 30% HP-β-CD, 25% PEG 400 (v/v), M4N 12.5 mg/mL, 60°): Y at 60°
Stability at Room Temperature ([1]; 30% HP-β-CD, M4N 1 mg/mL): >7 days
Dissolution After Heating at X ° C. ([1]; 30% HP-β-CD, M4N 1 mg/mL, 90°): Y at 90°
Stability at Room Temperature ([1]; 30% HP-β-CD, M4N 10 mg/mL): <3 days
Dissolution After Heating at X ° C. ([1]; 30% HP-β-CD, M4N 10 mg/mL, 90°): Y at 90°
Dissolution After Heating at X ° C. ([1]; 30% HP-β-CD, M4N 20 mg/mL, 90°): N at 90°
Dissolution After Heating at X ° C. ([1]; 30% HP-β-CD, M4N 50 mg/mL, 90°): N at 90°
Dissolution After Heating at X ° C. ([1]; 30% HP-β-CD, M4N 100 mg/mL, 90°): N at 90°
Stability at Room Temperature ([1]; 32% HP-β-CD, 20% PEG 400 (v/v), M4N 10 mg/mL): >7 days
Dissolution After Heating at X ° C. ([1]; 32% HP-β-CD, 20% PEG 400 (v/v), M4N 10 mg/mL, 60°): Y at 60°
Dissolution After Heating at X ° C. ([1]; 40% HP-β-CD, 1% PVP (w/v), M4N 1 mg/mL): N
Dissolution After Heating at X ° C. ([1]; 40% HP-β-CD, 1% PVP (w/v), M4N 10 mg/mL): N
Dissolution After Heating at X ° C. ([1]; 40% HP-β-CD, 2.5% PG (v/v), M4N 1 mg/mL, 80°): N at 80°
Dissolution After Heating at X ° C. ([1]; 40% HP-β-CD, 2.5% PG (v/v), M4N 10 mg/mL, 80°): N at 80°
Stability at Room Temperature ([1]; 40% HP-β-CD, M4N 1 mg/mL): >7 days
Dissolution After Heating at X ° C. ([1]; 40% HP-β-CD, M4N 1 mg/mL, 80°): Y at 80°
Stability at Room Temperature ([1]; 40% HP-β-CD, M4N 10 mg/mL): >7 days
Dissolution After Heating at X ° C. ([1]; 40% HP-β-CD, M4N 10 mg/mL, 80°): Y at 80°
Dissolution After Heating at X ° C. ([1]; 40% HP-β-CD, M4N 12 mg/mL, 80°): N at 80°
Dissolution After Heating at X ° C. ([1]; 40% HP-β-CD, M4N 14 mg/mL, 80°): N at 80°
Dissolution After Heating at X ° C. ([1]; 40% HP-β-CD, M4N 16 mg/mL, 80°): N at 80°
Dissolution After Heating at X ° C. ([1]; 40% HP-β-CD, M4N 20 mg/mL, 80°): N at 80°
Dissolution After Heating at X ° C. ([1]; 40% HP-β-CD, M4N 50 mg/mL, 80°): N at 80°
Dissolution After Heating at X ° C. ([1]; 40% HP-β-CD, M4N 100 mg/mL, 80°): N at 80°
Stability at Room Temperature ([1]; 50% HP-β-CD in saline, M4N 10 mg/mL): >7 days
Dissolution After Heating at X ° C. ([1]; 50% HP-β-CD in saline, M4N 10 mg/mL, 90°): Y at 90°
Stability at Room Temperature ([1]; 50% HP-β-CD, 1.25% PVP (w/v), M4N 1 mg/mL): <3 days
Dissolution After Heating at X ° C. ([1]; 50% HP-β-CD, 1.25% PVP (w/v), M4N 1 mg/mL, 90°): Y at 90°
Dissolution After Heating at X ° C. ([1]; 50% HP-β-CD, 1.25% PVP (w/v), M4N 10 mg/mL): N
Dissolution After Heating at X ° C. ([1]; 50% HP-β-CD, 1.25% PVP (w/v), M4N 50 mg/mL): N
Stability at Room Temperature ([1]; 50% HP-β-CD, M4N 1 mg/mL): >7 days
Dissolution After Heating at X ° C. ([1]; 50% HP-β-CD, M4N 1 mg/mL, 90°): Y at 90°
Stability at Room Temperature ([1]; 50% HP-β-CD, M4N 10 mg/mL): >7 days
Dissolution After Heating at X ° C. ([1]; 50% HP-β-CD, M4N 10 mg/mL, 90°): Y at 90°
Dissolution After Heating at X ° C. ([1]; 50% HP-β-CD, M4N 20 mg/mL, 90°): N at 90°
Dissolution After Heating at X ° C. ([1]; 50% HP-β-CD, M4N 50 mg/mL, 90°): N at 90°
Dissolution After Heating at X ° C. ([1]; 50% HP-β-CD, M4N 100 mg/mL, 90°): N at 90°
remained in solution after cooling ([1]; M4N 1 mg/mL and 10 mg/mL in 40% HP-β-CD): greater than 7 days
withstand 4° C. ([2]; 1:1 or 1:2 dilutions of the 50% PEG 300, 20% HP-β-CD, 12.5 mg/mL M4N stock): at least 4 months
withstands 4° C. ([2]; 50% PEG 300, 20% HP-β-CD, 12.5 mg/mL M4N stock solution): at least 4 months

Reference: patent US20080096967A1, “Formulations for Injection of Catecholic Butanes, Including Ndga Compounds, Into Animals” (priority 2005, published 2008)
